From patent publication US20030105595A1, “Chi square tests for gene expression” (priority 2001, published 2003)

Experiments:
Test in all cases: multi-sample expression analysis, band intensity
Type in all cases: in vivo
Conditions in all cases: Pooled
band b1i0_60.7 = test system: band b1i0_60.7
From the text: (§1) To practice the invention, one skilled in the art obtains a source of biological samples, as well as expression information about the biological samples, i.e., expression information relative to one or more genes or polypeptides encoded therein. Data is collected for a particular phenotype appearing within a given population under study, whereby expression of that phenotype is to be determined within the biological sample under study. The phenotype is correlated to a specific genotype, which is then represented as a band with a given intentity, thus indicative of gene expression levels, and is then compared to control samples. Alternatively, the response of a gene to dosage with one or more drugs is determined by band intensity. The standard deviation from the mean (StdDev) is calculated for the control samples, and is fit to functional form in the following equation: […]
(§2) A multi-sample expression analysis was run using the program described in Example 1. For each drug run, only runs for genes producing bands with a p-value<10^−5 in at least 2 of the following 3 comparisons were selected: low dose versus vehicle, high dose versus vehicle and low dose versus high dose. […] Since clusters found using all 13K bands included some of the best 2K bands, it was concluded that no essential signal was lost (see FIGS. 3 and 4). […] A comparison using the same analytic tests on only the best 2K bands. It can be seen that the Chi Square metric provides a better distinction between low and high doses than the correlation metric, which is not able to distinguish between the low dose and the high dose (see FIG. 6). The low-dose/high dose statistical variation is more pronounced when only the best 2K bands are selected.

band b1i0_57.4 = test system: band b1i0_57.4
From the text: as §1, §2

band b1i0_63.7 = test system: band b1i0_63.7
From the text: as §1, §2

band b1i0_51.7 = test system: band b1i0_51.7
From the text: as §1, §2

band b1i0_53.0 = test system: band b1i0_53.0
From the text: as §1, §2

band b1i0_54.5 = test system: band b1i0_54.5
From the text: as §1, §2

band b1i0_62.5 = test system: band b1i0_62.5
From the text: as §1, §2

band b1i0_69.4 = test system: band b1i0_69.4
From the text: as §1, §2

S=C=Nc1cccc2ccccc12 [ANIT]
band intensity b1i0_60.7 (band b1i0_60.7; High dose, 1d): 74.32 | band intensity b1i0_60.7 (band b1i0_60.7; High dose, 3d): 74.89 | band intensity b1i0_60.7 (band b1i0_60.7; High dose, 7d): 72.63 | band intensity b1i0_60.7 (band b1i0_60.7; Low dose, 1d): 87.08 | band intensity b1i0_60.7 (band b1i0_60.7; Low dose, 3d): 67.38 | band intensity b1i0_60.7 (band b1i0_60.7; Low dose, 7d): 75.42 | band intensity b1i0_60.7 (band b1i0_60.7; Low dose, 14d): 141.7 | band intensity b1i0_57.4 (band b1i0_57.4; High dose, 1d): 1272 | band intensity b1i0_57.4 (band b1i0_57.4; High dose, 3d): 712.4 | band intensity b1i0_57.4 (band b1i0_57.4; High dose, 7d): 685.8 | band intensity b1i0_57.4 (band b1i0_57.4; Low dose, 1d): 1209.0048 | band intensity b1i0_57.4 (band b1i0_57.4; Low dose, 3d): 1266 | band intensity b1i0_57.4 (band b1i0_57.4; Low dose, 7d): 1303 | band intensity b1i0_57.4 (band b1i0_57.4; Low dose, 14d): 810.7 | band intensity b1i0_63.7 (band b1i0_63.7; High dose, 1d): 50.09 | band intensity b1i0_63.7 (band b1i0_63.7; High dose, 3d): 0.01399 | band intensity b1i0_63.7 (band b1i0_63.7; High dose, 7d): 147.9 | band intensity b1i0_63.7 (band b1i0_63.7; Low dose, 1d): 170.6 | band intensity b1i0_63.7 (band b1i0_63.7; Low dose, 3d): 7.245 | band intensity b1i0_63.7 (band b1i0_63.7; Low dose, 7d): 299.4 | band intensity b1i0_63.7 (band b1i0_63.7; Low dose, 14d): 9.845 | band intensity b1i0_51.7 (band b1i0_51.7; High dose, 1d): 23.54 | band intensity b1i0_51.7 (band b1i0_51.7; High dose, 3d): 30.1 | band intensity b1i0_51.7 (band b1i0_51.7; High dose, 7d): 21.57 | band intensity b1i0_51.7 (band b1i0_51.7; Low dose, 1d): 30.7 | band intensity b1i0_51.7 (band b1i0_51.7; Low dose, 3d): 22.37 | band intensity b1i0_51.7 (band b1i0_51.7; Low dose, 7d): 20.67 | band intensity b1i0_51.7 (band b1i0_51.7; Low dose, 14d): 82 | band intensity b1i0_53.0 (band b1i0_53.0; High dose, 1d): 99.5 | band intensity b1i0_53.0 (band b1i0_53.0; High dose, 3d): 84.16 | band intensity b1i0_53.0 (band b1i0_53.0; High dose, 7d): 106.3 | band intensity b1i0_53.0 (band b1i0_53.0; Low dose, 1d): 121.8 | band intensity b1i0_53.0 (band b1i0_53.0; Low dose, 3d): 45.02 | band intensity b1i0_53.0 (band b1i0_53.0; Low dose, 7d): 108.1 | band intensity b1i0_53.0 (band b1i0_53.0; Low dose, 14d): 54.67 | band intensity b1i0_54.5 (band b1i0_54.5; High dose, 1d): 102.2 | band intensity b1i0_54.5 (band b1i0_54.5; High dose, 3d): 114.2 | band intensity b1i0_54.5 (band b1i0_54.5; High dose, 7d): 95.67 | band intensity b1i0_54.5 (band b1i0_54.5; Low dose, 1d): 105.3 | band intensity b1i0_54.5 (band b1i0_54.5; Low dose, 3d): 111.3 | band intensity b1i0_54.5 (band b1i0_54.5; Low dose, 7d): 88.17 | band intensity b1i0_54.5 (band b1i0_54.5; Low dose, 14d): 33.49 | band intensity b1i0_62.5 (band b1i0_62.5; High dose, 1d): 49.33 | band intensity b1i0_62.5 (band b1i0_62.5; High dose, 3d): 93.56 | band intensity b1i0_62.5 (band b1i0_62.5; High dose, 7d): 81.4 | band intensity b1i0_62.5 (band b1i0_62.5; Low dose, 1d): 68.44 | band intensity b1i0_62.5 (band b1i0_62.5; Low dose, 3d): 104.9 | band intensity b1i0_62.5 (band b1i0_62.5; Low dose, 7d): 91.61 | band intensity b1i0_62.5 (band b1i0_62.5; Low dose, 14d): 249.3 | band intensity b1i0_69.4 (band b1i0_69.4; High dose, 1d): 208.6 | band intensity b1i0_69.4 (band b1i0_69.4; High dose, 3d): 284.1 | band intensity b1i0_69.4 (band b1i0_69.4; High dose, 7d): 271.2 | band intensity b1i0_69.4 (band b1i0_69.4; Low dose, 1d): 276.3 | band intensity b1i0_69.4 (band b1i0_69.4; Low dose, 3d): 370.5 | band intensity b1i0_69.4 (band b1i0_69.4; Low dose, 7d): 305.4 | band intensity b1i0_69.4 (band b1i0_69.4; Low dose, 14d): 748.9

Dichlorobenzene
band intensity b1i0_60.7 (band b1i0_60.7; High dose, 1d): 79.94 | band intensity b1i0_60.7 (band b1i0_60.7; High dose, 3d): 62.13 | band intensity b1i0_60.7 (band b1i0_60.7; High dose, 7d): 77.87 | band intensity b1i0_60.7 (band b1i0_60.7; High dose, 14d): 82.42 | band intensity b1i0_60.7 (band b1i0_60.7; Low dose, 1d): 95.98 | band intensity b1i0_60.7 (band b1i0_60.7; Low dose, 3d): 58.61 | band intensity b1i0_60.7 (band b1i0_60.7; Low dose, 7d): 74.81 | band intensity b1i0_60.7 (band b1i0_60.7; Low dose, 14d): 94.46 | band intensity b1i0_57.4 (band b1i0_57.4; High dose, 1d): 1260 | band intensity b1i0_57.4 (band b1i0_57.4; High dose, 3d): 1064 | band intensity b1i0_57.4 (band b1i0_57.4; High dose, 7d): 1287 | band intensity b1i0_57.4 (band b1i0_57.4; High dose, 14d): 1142 | band intensity b1i0_57.4 (band b1i0_57.4; Low dose, 1d): 1301 | band intensity b1i0_57.4 (band b1i0_57.4; Low dose, 3d): 1352 | band intensity b1i0_57.4 (band b1i0_57.4; Low dose, 7d): 1298 | band intensity b1i0_57.4 (band b1i0_57.4; Low dose, 14d): 1338 | band intensity b1i0_63.7 (band b1i0_63.7; High dose, 1d): 129 | band intensity b1i0_63.7 (band b1i0_63.7; High dose, 3d): 5.698 | band intensity b1i0_63.7 (band b1i0_63.7; High dose, 7d): 224.3 | band intensity b1i0_63.7 (band b1i0_63.7; High dose, 14d): 157.7 | band intensity b1i0_63.7 (band b1i0_63.7; Low dose, 1d): 166.2 | band intensity b1i0_63.7 (band b1i0_63.7; Low dose, 3d): 24.94 | band intensity b1i0_63.7 (band b1i0_63.7; Low dose, 7d): 258.8 | band intensity b1i0_63.7 (band b1i0_63.7; Low dose, 14d): 152.1 | band intensity b1i0_51.7 (band b1i0_51.7; High dose, 1d): 27.84 | band intensity b1i0_51.7 (band b1i0_51.7; High dose, 3d): 10.75 | band intensity b1i0_51.7 (band b1i0_51.7; High dose, 7d): 16.63 | band intensity b1i0_51.7 (band b1i0_51.7; High dose, 14d): 21.77 | band intensity b1i0_51.7 (band b1i0_51.7; Low dose, 1d): 28.93 | band intensity b1i0_51.7 (band b1i0_51.7; Low dose, 3d): 26.06 | band intensity b1i0_51.7 (band b1i0_51.7; Low dose, 7d): 16.57 | band intensity b1i0_51.7 (band b1i0_51.7; Low dose, 14d): 23.43 | band intensity b1i0_53.0 (band b1i0_53.0; High dose, 1d): 103.4 | band intensity b1i0_53.0 (band b1i0_53.0; High dose, 3d): 48.52 | band intensity b1i0_53.0 (band b1i0_53.0; High dose, 7d): 99.66 | band intensity b1i0_53.0 (band b1i0_53.0; High dose, 14d): 95.42 | band intensity b1i0_53.0 (band b1i0_53.0; Low dose, 1d): 127.1 | band intensity b1i0_53.0 (band b1i0_53.0; Low dose, 3d): 71.53 | band intensity b1i0_53.0 (band b1i0_53.0; Low dose, 7d): 113.8 | band intensity b1i0_53.0 (band b1i0_53.0; Low dose, 14d): 116.4 | band intensity b1i0_54.5 (band b1i0_54.5; High dose, 1d): 91.99 | band intensity b1i0_54.5 (band b1i0_54.5; High dose, 3d): 89.82 | band intensity b1i0_54.5 (band b1i0_54.5; High dose, 7d): 80.92 | band intensity b1i0_54.5 (band b1i0_54.5; High dose, 14d): 84.91 | band intensity b1i0_54.5 (band b1i0_54.5; Low dose, 1d): 88.39 | band intensity b1i0_54.5 (band b1i0_54.5; Low dose, 3d): 128.4 | band intensity b1i0_54.5 (band b1i0_54.5; Low dose, 7d): 88.11 | band intensity b1i0_54.5 (band b1i0_54.5; Low dose, 14d): 101.4 | band intensity b1i0_62.5 (band b1i0_62.5; High dose, 1d): 68.45 | band intensity b1i0_62.5 (band b1i0_62.5; High dose, 3d): 97.82 | band intensity b1i0_62.5 (band b1i0_62.5; High dose, 7d): 76.86 | band intensity b1i0_62.5 (band b1i0_62.5; High dose, 14d): 64.49 | band intensity b1i0_62.5 (band b1i0_62.5; Low dose, 1d): 73.54 | band intensity b1i0_62.5 (band b1i0_62.5; Low dose, 3d): 76.31 | band intensity b1i0_62.5 (band b1i0_62.5; Low dose, 7d): 88.91 | band intensity b1i0_62.5 (band b1i0_62.5; Low dose, 14d): 68.64 | band intensity b1i0_69.4 (band b1i0_69.4; High dose, 1d): 295.5 | band intensity b1i0_69.4 (band b1i0_69.4; High dose, 3d): 393.2 | band intensity b1i0_69.4 (band b1i0_69.4; High dose, 7d): 261.7 | band intensity b1i0_69.4 (band b1i0_69.4; High dose, 14d): 311.3 | band intensity b1i0_69.4 (band b1i0_69.4; Low dose, 1d): 130.6 | band intensity b1i0_69.4 (band b1i0_69.4; Low dose, 3d): 334.6 | band intensity b1i0_69.4 (band b1i0_69.4; Low dose, 7d): 304.3 | band intensity b1i0_69.4 (band b1i0_69.4; Low dose, 14d): 333.2913
